# According to ChEMBL document CHEMBL1201862, “PubChem BioAssay data set” (2004):
# The source made the active and inactive calls.
# Experiments:
# [1] = viability of uninfected HEp-2 cells – cell-based, HTS, cytotoxicity control for RSV inhibitor project, dose response (AID 2410); format: functional; settings: human respiratory syncytial virus
# [2] = system: Streptococcus sp. 'group A'; experiment: Streptococcus pyogenes SK(-)GAS viability under kanamycin – luminescence, BacTiterGlo, confirmation, counter-screen for streptokinase expression inhibitor project, dose response (AID 1900); format: functional, organism-based
# [3] = reduction of Shn3 3'UTR-driven luciferase in osteoblasts – cell-based, Clone20 osteoblasts, firefly luciferase, cherry-picked, dose response (AID 624132); format: functional;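 further: firefly luciferase luminescence from reporter carrying the Shn3 3'UTR in osteoblasts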
# [4] = Luminescence Cell-Based Dose Retest to Confirm Inhibitors of Cancer Stem Cells. [Related pubchem assays (depositor defined):AID2717, AID2721]; format: functional; settings: Homo sapiens
# [5] = non-specific 3'UTR reporter inhibition in Clone20-Shn3RL – cell-based, Renilla luciferase, cherry-picked, counter-screen for Shn3 inhibitor project, dose response (AID 624133); format: functional
# Streptokinase A = target: T1, Streptokinase A (Streptococcus pyogenes serotype M1, UniProt P10520); experiment: viability-normalized secreted streptokinase activity reduction – plasminogen activation absorbance, OD405, dose response (AID 1914); format: functional, Streptococcus pyogenes M1 GAS;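 further: secreted streptokinase activity via plasminogen activation per viability signal from cell pellet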
# T1 sequence (P10520 whole entry): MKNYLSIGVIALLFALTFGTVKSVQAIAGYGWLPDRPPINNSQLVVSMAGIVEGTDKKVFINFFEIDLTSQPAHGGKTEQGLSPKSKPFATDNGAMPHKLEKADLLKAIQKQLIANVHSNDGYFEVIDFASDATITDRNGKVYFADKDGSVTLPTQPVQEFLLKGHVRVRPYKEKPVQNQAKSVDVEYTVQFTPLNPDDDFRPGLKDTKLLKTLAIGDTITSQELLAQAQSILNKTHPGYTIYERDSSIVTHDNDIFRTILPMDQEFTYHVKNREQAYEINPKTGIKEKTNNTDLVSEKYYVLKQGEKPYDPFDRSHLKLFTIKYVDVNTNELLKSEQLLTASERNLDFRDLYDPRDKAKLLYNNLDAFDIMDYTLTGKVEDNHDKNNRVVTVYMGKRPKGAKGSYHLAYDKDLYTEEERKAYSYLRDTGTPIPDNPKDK
# INS1 = experiment: INS-1E survival protection against cytokine death – cell-based, luminescence, retest, dose response (AID 449756); format: functional; settings: Rattus norvegicus;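 further: cell death triggered by IL-1 beta plus TNF-alpha plus IFN-gamma mixture; protective hits raise ATP signal compared with cytokine alone wells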
# Streptococcus [6] = experiment: Luminescence Microorganism-Based Dose Response Follow up to Identify Compounds Cytotoxic to Streptococcus. [Related pubchem assays: 1677 (Project Summary), 1915, 1914, 1902 (Retest at Dose), 1900 (Counter Screen), 1662 (Primary HTS)]; format: functional, organism-based
# Streptococcus [7] = experiment: GAS UMAA2166 growth inhibition – luminescence, BacTiterGlo, counter-screen for streptokinase expression inhibitor project, dose response (AID 1915); format: functional, organism-based; settings: read-out: EC50;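 further: potency for reduction of bacterial viability or growth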
# [8] = target: Peroxisome proliferator-activated receptor gamma/Nuclear receptor corepressor 2 (Homo sapiens, UniProt P37231+Q9Y618); format: functional
# Peroxisome proliferator-activated receptor gamma/Nuclear receptor corepressor 2, sequence (P37231 whole entry): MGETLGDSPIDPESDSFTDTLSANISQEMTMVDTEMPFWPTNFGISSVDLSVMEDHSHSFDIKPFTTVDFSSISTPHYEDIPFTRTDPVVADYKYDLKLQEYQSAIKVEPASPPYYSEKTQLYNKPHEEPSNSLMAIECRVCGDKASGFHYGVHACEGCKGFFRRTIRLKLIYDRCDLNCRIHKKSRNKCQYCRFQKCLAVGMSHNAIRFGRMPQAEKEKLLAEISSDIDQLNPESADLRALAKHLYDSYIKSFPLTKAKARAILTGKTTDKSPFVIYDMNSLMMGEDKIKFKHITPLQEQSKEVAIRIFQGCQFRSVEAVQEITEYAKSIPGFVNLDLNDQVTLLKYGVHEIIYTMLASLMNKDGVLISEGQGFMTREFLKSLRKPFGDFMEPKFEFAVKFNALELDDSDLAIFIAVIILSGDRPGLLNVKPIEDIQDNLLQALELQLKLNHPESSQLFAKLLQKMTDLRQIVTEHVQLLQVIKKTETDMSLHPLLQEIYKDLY
# Peroxisome proliferator-activated receptor gamma/Nuclear receptor corepressor 2, sequence (Q9Y618 whole entry): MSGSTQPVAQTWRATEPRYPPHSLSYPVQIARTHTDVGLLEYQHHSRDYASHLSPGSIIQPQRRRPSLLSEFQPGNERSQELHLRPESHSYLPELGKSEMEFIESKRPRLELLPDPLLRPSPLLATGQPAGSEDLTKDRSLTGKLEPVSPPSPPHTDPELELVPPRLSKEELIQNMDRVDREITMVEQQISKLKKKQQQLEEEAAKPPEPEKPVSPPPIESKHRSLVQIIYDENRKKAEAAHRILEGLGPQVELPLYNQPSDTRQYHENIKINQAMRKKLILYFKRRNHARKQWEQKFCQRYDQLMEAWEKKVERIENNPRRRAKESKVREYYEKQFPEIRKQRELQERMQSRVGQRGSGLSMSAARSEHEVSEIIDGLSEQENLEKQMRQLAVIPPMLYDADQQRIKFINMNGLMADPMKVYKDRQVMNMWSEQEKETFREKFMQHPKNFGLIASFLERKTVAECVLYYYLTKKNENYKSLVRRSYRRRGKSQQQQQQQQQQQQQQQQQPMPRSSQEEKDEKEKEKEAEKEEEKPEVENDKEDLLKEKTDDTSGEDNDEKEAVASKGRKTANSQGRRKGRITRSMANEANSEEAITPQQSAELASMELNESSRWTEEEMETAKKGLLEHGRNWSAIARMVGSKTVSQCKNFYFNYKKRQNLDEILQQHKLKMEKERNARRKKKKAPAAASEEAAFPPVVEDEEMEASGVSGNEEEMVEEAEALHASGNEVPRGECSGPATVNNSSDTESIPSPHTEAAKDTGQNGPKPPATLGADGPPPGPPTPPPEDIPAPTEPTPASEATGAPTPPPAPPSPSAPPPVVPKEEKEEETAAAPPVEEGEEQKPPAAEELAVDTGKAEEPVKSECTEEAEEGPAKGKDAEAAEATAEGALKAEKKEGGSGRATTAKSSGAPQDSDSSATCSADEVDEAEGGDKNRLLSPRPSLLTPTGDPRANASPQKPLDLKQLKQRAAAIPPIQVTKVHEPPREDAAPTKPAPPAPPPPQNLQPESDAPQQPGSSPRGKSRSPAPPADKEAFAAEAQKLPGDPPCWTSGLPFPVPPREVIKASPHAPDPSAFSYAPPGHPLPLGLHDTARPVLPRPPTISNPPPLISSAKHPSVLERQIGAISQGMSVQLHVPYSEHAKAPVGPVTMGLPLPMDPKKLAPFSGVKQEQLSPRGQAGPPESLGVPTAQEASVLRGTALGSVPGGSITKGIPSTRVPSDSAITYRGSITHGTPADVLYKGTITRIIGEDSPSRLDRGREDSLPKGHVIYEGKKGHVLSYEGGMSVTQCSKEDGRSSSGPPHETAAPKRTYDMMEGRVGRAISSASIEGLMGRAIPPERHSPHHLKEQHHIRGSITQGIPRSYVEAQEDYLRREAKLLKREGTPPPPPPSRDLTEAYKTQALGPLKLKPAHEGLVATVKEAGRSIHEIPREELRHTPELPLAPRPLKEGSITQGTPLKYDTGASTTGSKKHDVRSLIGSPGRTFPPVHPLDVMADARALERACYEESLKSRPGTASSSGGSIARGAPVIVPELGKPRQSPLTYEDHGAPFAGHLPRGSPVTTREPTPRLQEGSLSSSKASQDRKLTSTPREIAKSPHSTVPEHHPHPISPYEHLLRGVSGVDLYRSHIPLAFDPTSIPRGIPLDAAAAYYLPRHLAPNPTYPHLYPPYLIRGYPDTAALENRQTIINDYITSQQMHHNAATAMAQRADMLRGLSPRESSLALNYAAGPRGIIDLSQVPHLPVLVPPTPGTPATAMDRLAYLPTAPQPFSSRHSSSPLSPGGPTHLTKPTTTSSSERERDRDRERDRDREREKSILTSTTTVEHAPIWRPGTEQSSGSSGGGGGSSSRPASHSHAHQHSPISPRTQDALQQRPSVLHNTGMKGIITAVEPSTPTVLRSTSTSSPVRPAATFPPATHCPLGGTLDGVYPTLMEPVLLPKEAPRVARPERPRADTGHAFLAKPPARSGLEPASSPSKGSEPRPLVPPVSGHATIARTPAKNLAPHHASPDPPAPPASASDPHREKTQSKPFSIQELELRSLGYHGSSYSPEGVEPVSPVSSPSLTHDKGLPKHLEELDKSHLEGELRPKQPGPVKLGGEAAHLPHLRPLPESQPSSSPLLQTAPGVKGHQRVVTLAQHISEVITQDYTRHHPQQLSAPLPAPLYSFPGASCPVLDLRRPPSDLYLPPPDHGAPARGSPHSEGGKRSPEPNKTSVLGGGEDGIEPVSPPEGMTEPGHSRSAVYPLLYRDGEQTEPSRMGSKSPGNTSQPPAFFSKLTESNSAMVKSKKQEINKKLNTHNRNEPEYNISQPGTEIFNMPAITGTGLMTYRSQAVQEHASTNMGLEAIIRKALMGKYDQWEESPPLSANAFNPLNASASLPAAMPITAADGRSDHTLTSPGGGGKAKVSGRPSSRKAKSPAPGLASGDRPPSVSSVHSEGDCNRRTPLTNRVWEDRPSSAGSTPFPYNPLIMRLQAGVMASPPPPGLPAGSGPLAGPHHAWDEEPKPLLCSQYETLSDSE
# [9] = target: Photoreceptor-specific nuclear receptor (Homo sapiens, UniProt Q9Y5X4); format: functional;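 further: potency for compounds that break the NR2E3 corepressor complex and count as activators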
# Photoreceptor-specific nuclear receptor, sequence (Q9Y5X4 whole entry): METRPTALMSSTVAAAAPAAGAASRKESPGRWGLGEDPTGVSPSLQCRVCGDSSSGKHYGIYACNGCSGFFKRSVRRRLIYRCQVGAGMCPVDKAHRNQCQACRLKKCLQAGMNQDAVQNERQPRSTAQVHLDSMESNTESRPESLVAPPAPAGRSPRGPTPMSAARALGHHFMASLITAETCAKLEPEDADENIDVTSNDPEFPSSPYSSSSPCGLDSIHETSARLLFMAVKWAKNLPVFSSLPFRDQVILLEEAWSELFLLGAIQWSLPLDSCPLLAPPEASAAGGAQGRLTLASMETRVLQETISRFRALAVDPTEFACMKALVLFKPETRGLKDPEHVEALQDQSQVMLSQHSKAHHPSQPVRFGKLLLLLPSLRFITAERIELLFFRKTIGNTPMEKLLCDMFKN
# [10] = target: T2, Neuropeptides B/W receptor type 1 (Homo sapiens, UniProt P48145); experiment: Fluorescence-based dose response cell-based high throughput screening assay to identify antagonists of the G-protein coupled receptor 7 (GPR7). [Related pubchem assays: 1952 (Screening assay (GPR7 antagonists).), 1880 (Summary AID.)]; format: functional
# T2 sequence (P48145 whole entry): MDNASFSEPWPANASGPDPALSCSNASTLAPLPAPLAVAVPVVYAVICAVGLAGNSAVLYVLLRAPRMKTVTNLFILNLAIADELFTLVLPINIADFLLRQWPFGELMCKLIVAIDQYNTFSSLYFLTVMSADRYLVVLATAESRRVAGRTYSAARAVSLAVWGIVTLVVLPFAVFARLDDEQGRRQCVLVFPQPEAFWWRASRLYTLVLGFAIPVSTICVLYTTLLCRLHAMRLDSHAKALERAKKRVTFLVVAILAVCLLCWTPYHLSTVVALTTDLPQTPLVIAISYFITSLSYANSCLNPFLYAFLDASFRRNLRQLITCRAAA
# [11] = target: Melanin-concentrating hormone receptor 1 (Homo sapiens, UniProt Q99705); experiment: Fluorescence-based counterscreen for antagonists of the G-protein coupled receptor 7 (GPR7): cell-based high throughput dose response assay to identify antagonists of the melanin-concentrating hormone receptor 1 (MCHR1).; format: functional
# Melanin-concentrating hormone receptor 1, sequence (Q99705 whole entry): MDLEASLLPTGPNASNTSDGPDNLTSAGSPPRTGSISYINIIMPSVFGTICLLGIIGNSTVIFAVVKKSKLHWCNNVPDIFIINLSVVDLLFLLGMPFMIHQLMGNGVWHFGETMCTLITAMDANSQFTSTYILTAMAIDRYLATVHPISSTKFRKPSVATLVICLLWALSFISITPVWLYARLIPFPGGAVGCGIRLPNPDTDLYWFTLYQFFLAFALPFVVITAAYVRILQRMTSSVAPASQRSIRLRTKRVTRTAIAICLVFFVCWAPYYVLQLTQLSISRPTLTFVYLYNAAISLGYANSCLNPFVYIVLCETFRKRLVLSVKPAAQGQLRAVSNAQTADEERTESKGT
structure (smiles),measurement,setting,value
COC(=O)C1=C(C)N(Cc2ccco2)C(=O)N[C@H]1c1ccccc1,CC50,[1],> 50 µM (active)
same,IC50,cells,21.8 µM (active)
COC(=O)c1ccccc1NC(=O)c1nc(S(=O)(=O)Cc2ccccc2)ncc1Cl,EC50,[2],> 50 µM (not active)
same,AC50,[3],0.428 µM (active)
same,AC50,[4],1.84 µM (active)
same,AC50,[5],8.03 µM (active)
same,EC50,Streptokinase A,3.08 µM (active)
same,AC50,INS1,6.88 µM (active)
same,EC50,Streptococcus [6],> 56 µM (not active)
same,EC50,Streptococcus [7],> 150 µM (not active)
CCOc1cccc(C2C(C(=O)c3ccc(C)o3)=C(O)C(=O)N2CCCn2ccnc2)c1 (stereo unspecified),IC50,[8],16.8 µM (not active)
same,IC50,[9],> 39.8 µM (not active)
O=P(Cc1cc(Br)cc(Br)c1OCCO)(c1ccccc1)c1ccccc1,IC50,[10],> 43.8 µM (not active)
same,IC50,[11],9.96 µM (active)
CCCCOc1ccc(-c2c(C#N)c(S)nc(C)c2C(=O)Nc2ccccc2)cc1,IC50,[8],0.778 µM (active)
same,IC50,[9],0.33 µM (active)
